From PubChem BioAssay AID2049 (The Scripps Research Institute Molecular Screening Center, 2009) come the findings set out here.

By CC50 is commonly meant the concentration giving 50% cytotoxicity. A word on the EC50: it is the concentration at which the effect is half-maximal. The term pEC50 denotes −log10 of the EC50, conventionally taken in molar units.

pEC50: −log10 of the molar value. The source made the active and inactive calls. How the calls were made is not given here. Some results are limits rather than exact numbers.

Signal transducer and activator of transcription 1-alpha/beta (Homo sapiens), sequence (P42224 whole entry, looked up): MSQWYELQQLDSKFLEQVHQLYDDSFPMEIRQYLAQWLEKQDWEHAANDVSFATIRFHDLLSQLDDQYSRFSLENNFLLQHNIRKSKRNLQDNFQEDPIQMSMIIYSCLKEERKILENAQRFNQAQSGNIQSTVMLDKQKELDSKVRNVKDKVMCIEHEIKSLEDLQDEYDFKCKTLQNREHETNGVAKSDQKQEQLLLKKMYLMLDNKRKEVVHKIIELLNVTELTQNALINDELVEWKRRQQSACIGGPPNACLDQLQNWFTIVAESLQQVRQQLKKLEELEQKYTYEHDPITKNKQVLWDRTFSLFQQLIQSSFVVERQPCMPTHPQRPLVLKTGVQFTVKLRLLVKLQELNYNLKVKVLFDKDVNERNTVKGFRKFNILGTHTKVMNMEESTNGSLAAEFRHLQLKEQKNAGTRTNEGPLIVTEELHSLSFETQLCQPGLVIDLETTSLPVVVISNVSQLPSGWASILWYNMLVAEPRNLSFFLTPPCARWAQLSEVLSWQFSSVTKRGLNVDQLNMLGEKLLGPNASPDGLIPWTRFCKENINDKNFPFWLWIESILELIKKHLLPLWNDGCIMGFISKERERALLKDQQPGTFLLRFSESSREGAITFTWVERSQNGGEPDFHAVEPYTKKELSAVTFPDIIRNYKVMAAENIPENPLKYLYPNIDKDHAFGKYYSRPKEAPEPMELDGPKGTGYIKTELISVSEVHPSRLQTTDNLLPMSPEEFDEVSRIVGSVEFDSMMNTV

For one experiment, the system named is Cytotoxicity. In words: STAT3 activation with BCL3 mRNA and toxicity – cell-based, STAT1 reporter, BCL3 qPCR, cytotoxicity, late-stage follow-up (AID 2049). The conditions noted are these: human cell reporter, cytotoxicity panel. On the technique in general: Real-time PCR tracks product formation cycle by cycle.
In the case of `COc1cc(NC(=O)c2cc(C3CC3)on2)c(OC)cc1Cl`, the CC50 was over 55.7 µM.

A further experiment concerns the target Signal transducer and activator of transcription 1-alpha/beta (Homo sapiens) (UniProt P42224). The description is as above. As to conditions: STAT1, Activation.
As to `COc1cc(NC(=O)c2cc(C3CC3)on2)c(OC)cc1Cl`, the EC50 was > 55.7 µM (inactive).
On the same count and under the same terms, next, `Nc1c(C(=O)Nc2ccccc2)noc1C(=O)c1ccccc1`: > 55.7 µM (inactive); `CN(C(=O)c1cc(C2CC2)on1)c1ccccc1`: > 55.7 µM (inactive); `COc1cc(NC(=O)c2cc(C3CC3)on2)cc(OC)c1`: “inactive”.
Turning to `COc1ccccc1NC(=O)c1cc(-c2ccccc2)on1`, the EC50 result is “inactive”.
`COc1cc(NC(=O)c2cc(C)on2)c(OC)cc1Cl`: the EC50 is > 55.7 µM (inactive).
Same read-out and setting: then `COc1ccc(Cl)cc1NC(=O)c1cc(C2CC2)on1`, with > 55.7 µM (inactive); and `COc1cc(NC(=O)c2cc(C3CC3)on2)ccc1Br`, with “inactive”; and `COc1cc(OC)c(NC(=O)c2cc(CN3CCCC3)on2)cc1Cl`, with > 55.7 µM (inactive).
As for `COc1cccc(NC(=O)c2cc(C3CC3)on2)c1`, the pEC50 is 5.28.
Turning to `COc1cc(NC(=O)c2cc(C(C)C)on2)c(OC)cc1Cl`, the EC50 is > 55.7 µM (inactive).
On to `COc1ccc(OC)c(NC(=O)c2cc(CN3CCCC3)on2)c1`, for which the EC50 was > 55.7 µM (inactive).
As to `O=C(Nc1ccccc1Cl)c1cc(C2CC2)on1`, the pEC50 is 5.52.
On to `CCCc1cc(C(=O)Nc2cc(OC)c(Cl)cc2OC)no1`, for which the EC50 is > 55.7 µM (inactive).
